In PubChem BioAssay AID651650 (Sanford-Burnham Center for Chemical Genomics, 2012):
pIC50: −log10 of the molar value. Calls of active or inactive are those of the source.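 How the source made its calls: active means mean IC50 below 20 µM in each of the two panels, so potent in both; inactive means the rest.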

Target: Neuropilin-1 (Homo sapiens) (UniProt O14786)
Test: blockers of CendR peptide binding to NRP-1 – biochemical, FP and AlphaScreen panel, dose response (AID 651650)
Conditions: NRP-1 b1b2 / RPARPAR peptide binding, FP or AlphaScreen
[1] = AlphaScreen, run 1, individual panel run IC50
[2] = FP, run 1, individual panel run IC50
[3] = FP, run 2, individual panel run IC50

Neuropilin-1 (Homo sapiens), sequence (O14786 whole entry, looked up): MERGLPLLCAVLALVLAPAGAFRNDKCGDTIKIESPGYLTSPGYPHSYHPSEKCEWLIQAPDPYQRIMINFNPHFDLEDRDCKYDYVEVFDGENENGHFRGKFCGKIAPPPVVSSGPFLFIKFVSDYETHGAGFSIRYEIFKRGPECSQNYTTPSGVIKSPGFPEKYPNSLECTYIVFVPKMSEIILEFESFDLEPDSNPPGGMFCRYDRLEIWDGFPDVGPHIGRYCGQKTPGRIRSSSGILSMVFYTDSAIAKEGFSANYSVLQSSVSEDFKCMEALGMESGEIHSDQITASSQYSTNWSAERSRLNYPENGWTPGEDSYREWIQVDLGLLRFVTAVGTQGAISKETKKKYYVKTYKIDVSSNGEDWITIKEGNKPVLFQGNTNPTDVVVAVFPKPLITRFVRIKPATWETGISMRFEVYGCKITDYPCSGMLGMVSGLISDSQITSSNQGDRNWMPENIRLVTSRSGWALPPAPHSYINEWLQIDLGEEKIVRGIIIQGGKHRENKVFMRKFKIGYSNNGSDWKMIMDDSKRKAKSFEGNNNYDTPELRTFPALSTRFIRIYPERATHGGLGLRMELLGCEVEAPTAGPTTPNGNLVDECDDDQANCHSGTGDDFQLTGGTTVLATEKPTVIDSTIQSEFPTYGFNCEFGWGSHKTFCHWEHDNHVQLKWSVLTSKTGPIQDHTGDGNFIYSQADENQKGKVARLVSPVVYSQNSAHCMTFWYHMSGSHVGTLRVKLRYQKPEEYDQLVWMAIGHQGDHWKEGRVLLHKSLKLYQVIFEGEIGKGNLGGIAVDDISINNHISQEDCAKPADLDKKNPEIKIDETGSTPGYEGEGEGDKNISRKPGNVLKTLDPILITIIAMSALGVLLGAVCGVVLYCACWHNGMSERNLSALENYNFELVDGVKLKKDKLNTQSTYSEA

Structure (SMILES) | IC50 (AlphaScreen, mean of runs) | pIC50 [1] | IC50 (FP, mean of runs) | pIC50 [2] | pIC50 [3] | pIC50 (AlphaScreen, mean of runs)
CC(C)COC(=O)C1C2C=CC3(CN(C(C)c4ccc(Br)cc4)C(=O)C13)O2 (stereo not given) | > 100 µM (inactive) | < 4.00 | > 95 µM (inactive) | < 4.02 | < 4.02 | –
COc1cc(C(=O)OCC(=O)Nc2c(F)c(F)c(F)c(F)c2F)cc(OC)c1OC | > 100 µM (inactive) | < 4.00 | > 95 µM (inactive) | < 4.02 | < 4.02 | –
CC1(c2ccccc2)CC(C)(C)n2c(O)c(C3=NC(=S)NC3=O)c3cccc1c32 (stereo not given) | > 100 µM (inactive) | < 4.00 | > 95 µM (inactive) | < 4.02 | < 4.02 | –
Cc1onc(-c2ccccc2)c1C(=O)Nc1c(C)n(C)n(-c2ccccc2)c1=O | > 100 µM (inactive) | < 4.00 | > 95 µM (inactive) | < 4.02 | < 4.02 | –
COc1ccc(Cn2c3ccc(OC)cc3c3nc4ccccc4nc32)cc1 | inactive | 4.41 | > 95 µM (inactive) | < 4.02 | < 4.02 | –
O=C(CSC1CN(C(c2ccccc2)c2ccccc2)C1)N/N=C/c1ccccc1 | – | 5.26 | > 95 µM (inactive) | < 4.02 | < 4.02 | 5.25
CC(OC(=O)c1ccco1)C(=O)Nc1nc(-c2ccccc2)cs1 (stereo not given) | > 100 µM (inactive) | < 4.00 | > 95 µM (inactive) | < 4.02 | < 4.02 | –
Cn1cccc1C1Nc2ccccc2NC2=C1C(=O)CC(C)(C)C2 (stereo not given) | > 100 µM (inactive) | < 4.00 | > 95 µM (inactive) | < 4.02 | < 4.02 | –
COc1ccc(-c2csc(Nc3cccnc3)n2)cc1 | > 100 µM (inactive) | < 4.00 | > 95 µM (inactive) | < 4.02 | < 4.02 | –
O=[N+]([O-])c1ccc(Cc2ccncc2)cc1 | > 100 µM (inactive) | < 4.00 | > 95 µM (inactive) | < 4.02 | < 4.02 | –
Cc1cc2cc(CNC(=O)c3ccco3)ccc2n1C | > 100 µM (inactive) | < 4.00 | > 95 µM (inactive) | < 4.02 | < 4.02 | –
Cn1cnc2cc(NC(=O)c3ccco3)ccc21 | – | 4.73 | > 95 µM (inactive) | < 4.02 | < 4.02 | 4.73
Oc1ccc(-c2nc3ncccn3c2Nc2ccc3c(c2)OCO3)cc1 | > 100 µM (inactive) | < 4.00 | > 95 µM (inactive) | < 4.02 | < 4.02 | –
O=C(NCCCN1CCOCC1)c1ccc2c(=O)n(-c3ccc(F)c(Cl)c3)c(=S)[nH]c2c1 | > 100 µM (inactive) | < 4.00 | > 95 µM (inactive) | < 4.02 | < 4.02 | –
CCOc1ccc(C2CC(c3ccc(CC)cc3)n3nc(N)nc3N2)cc1 (stereo not given) | > 100 µM (inactive) | < 4.00 | > 95 µM (inactive) | < 4.02 | < 4.02 | –
COc1ccc(CCN=C2SCC(=O)N2Cc2ccccc2)cc1OC | > 100 µM (inactive) | < 4.00 | > 95 µM (inactive) | < 4.02 | < 4.02 | –
CCCCC1CCC(C(=O)NC2CCS(=O)(=O)C2)CC1 (stereo not given) | > 100 µM (inactive) | < 4.00 | > 95 µM (inactive) | < 4.02 | < 4.02 | –

Structure (SMILES) | IC50 (AlphaScreen, mean of runs) | pIC50 [1] | IC50 (FP, mean of runs) | pIC50 [2] | pIC50 [3] | pIC50 (AlphaScreen, mean of runs)
CCOC(=O)C1=C(C)NC2=C(C(=O)CCC2)C1c1cn(Cc2ccc(Cl)cc2Cl)nc1-c1ccccc1 (stereo not given) | inactive | 4.45 | > 95 µM (inactive) | < 4.02 | < 4.02 | –
O=C(/C=C/c1ccco1)N/C(=C\c1ccccc1)C(=O)NCCc1nc2ccccc2[nH]1 | > 100 µM (inactive) | < 4.00 | > 95 µM (inactive) | < 4.02 | < 4.02 | –
C=C[C@]12CC[C@H](OC(C)=O)CC1=CCC1C2CC[C@@]2(C)C1CCC21OCCO1 (stereo not given in full) | > 100 µM (inactive) | < 4.00 | > 95 µM (inactive) | < 4.02 | < 4.02 | –
CCOC(=O)N1CCN(C(=O)c2cc(COc3ccc(OC)cc3Cl)on2)CC1 | > 100 µM (inactive) | < 4.00 | > 95 µM (inactive) | < 4.02 | < 4.02 | –
Cc1cc(S(=O)(=O)NC2CCCCC2)ccc1OCC(=O)N1CCOCC1 | – | 4.82 | > 95 µM (inactive) | < 4.02 | < 4.02 | 4.82
O=C(COc1cc(Cl)c(Cl)cc1Cl)Nc1ccc([N+](=O)[O-])cc1Cl | > 100 µM (inactive) | < 4.00 | > 95 µM (inactive) | < 4.02 | < 4.02 | –
CC1CCN(C(=O)CSc2nncn2C)CC1 | > 100 µM (inactive) | < 4.00 | > 95 µM (inactive) | < 4.02 | < 4.02 | –
Cn1c(=O)c2c(nc(OCc3cccnc3)n2Cc2ccccc2)n(C)c1=O | inactive | 4.39 | > 95 µM (inactive) | < 4.02 | < 4.02 | –
O=[N+]([O-])c1ccc(-n2nnnc2CN2CCCCC2)cc1 | > 100 µM (inactive) | < 4.00 | > 95 µM (inactive) | < 4.02 | < 4.02 | –
CCN1C(=O)C(=O)c2cc(C)ccc21 | > 100 µM (inactive) | < 4.00 | > 95 µM (inactive) | < 4.02 | < 4.02 | –
CC(C)C[C@@H](COc1ccccc1)N1CCN(CCc2ccccc2)CCC1=O | > 100 µM (inactive) | < 4.00 | > 95 µM (inactive) | < 4.02 | < 4.02 | –
CC(=O)Nc1ccc2nc3c(=O)n(C)c(=O)n(C)c3nc2c1 | inactive | 4.24 | > 95 µM (inactive) | < 4.02 | < 4.02 | –
CCc1ccc(NC(=O)CCn2nc(C)c(S(=O)(=O)N3CCCCC3)c2C)cc1 | > 100 µM (inactive) | < 4.00 | > 95 µM (inactive) | < 4.02 | < 4.02 | –
O=C(CSc1nc2ccccc2n1Cc1ccccc1Cl)N/N=C/c1ccccc1C(=O)O | inactive | 4.41 | > 95 µM (inactive) | < 4.02 | < 4.02 | –
O=C(NNC(=O)C1CCN(c2ncccn2)CC1)c1ccc(F)cc1 | > 100 µM (inactive) | < 4.00 | > 95 µM (inactive) | < 4.02 | < 4.02 | –
Cc1cc(NC(=O)CCC(=O)NNC(=O)c2ccc(C(C)(C)C)cc2)no1 | – | 5.06 | > 95 µM (inactive) | < 4.02 | < 4.02 | 5.06
Nc1cc(S(=O)(=O)O)cc([N+](=O)[O-])c1O | – | 5.37 | > 95 µM (inactive) | < 4.02 | < 4.02 | 5.37
